# From patent US20240254118A1, “PRMT5 INHIBITORS AND USES THEREOF” (Gilead Sciences, Inc., priority 2022, published 2024)
# Assays:
# [1] = test system: HCT116 MTAP-deleted cells; assay: Cell viability assay (CellTiter-Glo, 7 days), HCT116 MTAP-deleted; settings: Homo sapiens, HCT-116, 168 h
# [2] = test system: SDMA signal (PRMT5 inhibition) in HCT116 MTAP-deleted cells; assay: Symmetric di-methyl arginine image-based high content screen assay (SDMA assay), HCT116 MTAP-deleted; format: cell-based; settings: SDMA assay; for EC50: Homo sapiens, HCT-116, 72 h, 3 days of treatment, cell line not given, taken as HCT116 MTAP-deleted, read-out: EC50 (SDMA assay); for EC50 selectivity (SDMA assay): taken as HCT116 WT versus MTAP-deleted
# In short: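 HCT116 MTAP-deleted cells treated with compound until Day 3, then formalin-fixed, permeabilized and immunostained for SDMA, with DAPI nuclear counterstain. Imaged by high-content microscopy; SDMA read-out is mean Alexa 488 intensity per DAPI-defined cell, reflecting PRMT5 inhibition.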
EC50 [2],EC50 selectivity (SDMA assay) [2],SMILES,CC50 [1]
1 to 5 nM,441,"CC(=O)N(C)N(Cc1ccccc1F)C(=O)c1ccc2nc(N)c3cnn(C)c3c2c1 [Example 181, N′-acetyl-4-amino-N-(2-fluorobenzyl)-N′,1-dimethyl-1H-pyrazolo[4,3-c]quinoline-8-carbohydrazide]",100 to 1000 nM
< 1 nM,209,"CC(=O)N(C)N(Cc1ccccc1F)C(=O)c1cc2c(cc1F)nc(N)c1cnn(C)c12 [Example 182, N′-acetyl-4-amino-7-fluoro-N-(2-fluorobenzyl)-N′,1-dimethyl-1H-pyrazolo[4,3-c]quinoline-8-carbohydrazide]",< 100 nM
1 to 5 nM,300,"CC(=O)N(C)N(Cc1ccccc1Cl)C(=O)c1ccc2nc(N)c3cnn(C)c3c2c1 [Example 183, N′-acetyl-4-amino-N-(2-chlorobenzyl)-N′,1-dimethyl-1H-pyrazolo[4,3-c]quinoline-8-carbohydrazide]",< 100 nM
> 5 nM,195,"CN(C(=O)c1cccnn1)N(Cc1ccc(C(F)(F)F)cn1)C(=O)c1ccc2nc(N)c3cnn(C)c3c2c1 [Example 184, 14-amino-N′,1-dimethyl-N′-(pyridazine-3-carbonyl)-N-((5-(trifluoromethyl)pyridin-2-yl)methyl)-1H-pyrazolo[4,3-c]quinoline-8-carbohydrazide]",> 1000 nM
< 1 nM,33,"CN(C(=O)C12CC(CO1)C2)N(Cc1ccc(C(F)(F)F)cn1)C(=O)c1ccc2nc(N)c3cnn(C)c3c2c1 [Example 185, 4-amino-N′,1-dimethyl-N′-(2-oxabicyclo[2.1.1]hexane-1-carbonyl)-N-[[5-(trifluoromethyl)-2-pyridyl]methyl]pyrazolo[4,3-c]quinoline-8-carbohydrazide]",< 100 nM
1 to 5 nM,66,"CN(C(=O)C12COC(C1)C2)N(Cc1ccc(C(F)(F)F)cn1)C(=O)c1ccc2nc(N)c3cnn(C)c3c2c1 [Example 186, 4-amino-N′,1-dimethyl-N′-(2-oxabicyclo[2.1.1]hexane-4-carbonyl)-N-[[5-(trifluoromethyl)-2-pyridyl]methyl]pyrazolo[4,3-c]quinoline-8-carbohydrazide]",100 to 1000 nM
1 to 5 nM,50,"COC12CC(C(=O)N(C)N(Cc3ccc(C(F)(F)F)cn3)C(=O)c3ccc4nc(N)c5cnn(C)c5c4c3)(C1)C2 [Example 187, 4-amino-N′-(3-methoxybicyclo[1.1.1]pentane-1-carbonyl)-N′,1-dimethyl-N-[[5-(trifluoromethyl)-2-pyridyl]methyl]pyrazolo[4,3-c]quinoline-8-carbohydrazide]",< 100 nM
> 5 nM,62,"CN(C(=O)C12CC(C#N)(C1)C2)N(Cc1ccc(C(F)(F)F)cn1)C(=O)c1ccc2nc(N)c3cnn(C)c3c2c1 [Example 188, 4-amino-N′-(3-cyanobicyclo[1.1.1]pentane-1-carbonyl)-N′,1-dimethyl-N-[[5-(trifluoromethyl)-2-pyridyl]methyl]pyrazolo[4,3-c]quinoline-8-carbohydrazide]",100 to 1000 nM
< 1 nM,13,"CN(C(=O)C(C)(F)F)N(Cc1ccc(C(F)(F)F)cn1)C(=O)c1ccc2nc(N)c3cnn(C)c3c2c1 [Example 189, 4-amino-N′-(2,2-difluoropropanoyl)-N′,1-dimethyl-N-[[5-(trifluoromethyl)-2-pyridyl]methyl]pyrazolo[4,3-c]quinoline-8-carbohydrazide]",< 100 nM
1 to 5 nM,185,"CN(C(=O)C1(C#N)CCC1)N(Cc1ccc(C(F)(F)F)cn1)C(=O)c1ccc2nc(N)c3cnn(C)c3c2c1 [Example 192, 4-amino-N′-(1-cyanocyclobutanecarbonyl)-N′,1-dimethyl-N-[[5-(trifluoromethyl)-2-pyridyl]methyl]pyrazolo[4,3-c]quinoline-8-carbohydrazide]",100 to 1000 nM
< 1 nM,202,"CN(C(=O)C1(F)CC1)N(Cc1ccc(C(F)(F)F)nn1)C(=O)c1ccc2nc(N)c3cnn(C)c3c2c1 [Example 193, 4-amino-N′-(1-fluorocyclopropanecarbonyl)-N′,1-dimethyl-N-[[6-(trifluoromethyl)pyridazin-3-yl]methyl]pyrazolo[4,3-c]quinoline-8-carbohydrazide]",< 100 nM
< 1 nM,68,"CN(C(=O)C1(F)CC1)N(Cc1ccc(C(F)(F)F)nn1)C(=O)c1cc2c(cc1F)nc(N)c1cnn(C)c12 [Example 194, 4-amino-7-fluoro-N′-(1-fluorocyclopropanecarbonyl)-N′, 1-dimethyl-N-[[6-(trifluoromethyl)pyridazin-3-yl]methyl]pyrazolo[4,3-c]quinoline-8-carbohydrazide]",< 100 nM
< 1 nM,146,"CN(C(=O)C(F)F)N(Cc1ccc(C(F)(F)F)cn1)C(=O)c1ccc2nc(N)c3cnn(C)c3c2c1 [Example 195, 4-amino-N′-(2,2-difluoroacetyl)-N′,1-dimethyl-N-[[5-(trifluoromethyl)-2-pyridyl]methyl]pyrazolo[4,3-c]quinoline-8-carbohydrazide]",< 100 nM
1 to 5 nM,137,"CC(=O)N(C)N(Cc1ccc2ncsc2c1)C(=O)c1ccc2nc(N)c3cnn(C)c3c2c1 [Example 196, N′-acetyl-4-amino-N-(1,3-benzothiazol-6-ylmethyl)-N′,1-dimethyl-pyrazolo[4,3-c]quinoline-8-carbohydrazide]",< 100 nM
< 1 nM,61,"CN(C(=O)[C@H]1CCO1)N(Cc1ccc(C(F)(F)F)cc1F)C(=O)c1ccc2nc(N)c3cnn(C)c3c2c1 [Example 197, 4-amino-N-[[2-fluoro-4-(trifluoromethyl)phenyl]methyl]-N′,1-dimethyl-N′-[(2R)-oxetane-2-carbonyl]pyrazolo[4,3-c]quinoline-8-carbohydrazide]",< 100 nM
< 1 nM,57,"CN(C(=O)[C@@H]1CCO1)N(Cc1ccc(C(F)(F)F)cc1F)C(=O)c1ccc2nc(N)c3cnn(C)c3c2c1 [Example 198, 4-amino-N-[[2-fluoro-4-(trifluoromethyl)phenyl]methyl]-N′,1-dimethyl-N′-[(2S)-oxetane-2-carbonyl]pyrazolo[4,3-c]quinoline-8-carbohydrazide]",< 100 nM
< 1 nM,26,"Cn1ncc2c(N)nc3ccc(C(=O)N(Cc4ccc(C(F)(F)F)cc4F)n4ccnc4)cc3c21 [Example 199, 4-amino-N-[[2-fluoro-4-(trifluoromethyl)phenyl]methyl]-N-imidazol-1-yl-1-methyl-pyrazolo[4,3-c]quinoline-8-carboxamide]",< 100 nM
< 1 nM,6,"Cn1ncc2c(N)nc3cc(F)c(C(=O)N(Cc4ccc(C(F)(F)F)cc4F)n4ccnc4)cc3c21 [Example 200, 4-amino-7-fluoro-N-[[2-fluoro-4-(trifluoromethyl)phenyl]methyl]-N-imidazol-1-yl-1-methyl-pyrazolo[4,3-c]quinoline-8-carboxamide]",< 100 nM
1 to 5 nM,423,"COC(C)(C)C(=O)N(C)N(Cc1ccc(C(F)(F)F)cn1)C(=O)c1ccc2nc(N)c3cnn(C)c3c2c1 [Example 201, 4-amino-N′-(2-methoxy-2-methyl-propanoyl)-N′,1-dimethyl-N-[[5-(trifluoromethyl)-2-pyridyl]methyl]pyrazolo[4,3-c]quinoline-8-carbohydrazide]",< 100 nM
1 to 5 nM,10,"Nc1nc2ccc(C(=O)N(Cc3ccc(C(F)(F)F)cn3)N3CCCCC3=O)cc2c2[nH]ncc12 [Example 202, 4-amino-N-(2-oxo-1-piperidyl)-N-[[5-(trifluoromethyl)-2-pyridyl]methyl]-1H-pyrazolo[4,3-c]quinoline-8-carboxamide]",< 100 nM
1 to 5 nM,159,"CC(=O)N(C(C)C)N(Cc1ccc(C(F)(F)F)cn1)C(=O)c1ccc2nc(N)c3cnn(C)c3c2c1 [Example 203, N′-acetyl-4-amino-N′-isopropyl-1-methyl-N-[[5-(trifluoromethyl)-2-pyridyl]methyl]pyrazolo[4,3-c]quinoline-8-carbohydrazide]",100 to 1000 nM
1 to 5 nM,150,"CCN(C(C)=O)N(Cc1ccc(C(F)(F)F)cn1)C(=O)c1ccc2nc(N)c3cnn(C)c3c2c1 [Example 204, N′-acetyl-4-amino-N′-ethyl-1-methyl-N-[[5-(trifluoromethyl)-2-pyridyl]methyl]pyrazolo[4,3-c]quinoline-8-carbohydrazide]",< 100 nM

SMILES,EC50 [2],EC50 selectivity (SDMA assay) [2],CC50 [1]
"Cn1ncc2c(N)nc3ccc(C(=O)N(Cc4ccc(C(F)(F)F)cn4)N4CC5(CC5)OC4=O)cc3c21 [Example 190, 4-amino-1-methyl-N-(5-oxo-4-oxa-6-azaspiro[2.4]heptan-6-yl)-N-[[5-(trifluoromethyl)-2-pyridyl]methyl]pyrazolo[4,3-c]quinoline-8-carboxamide]",< 1 nM,144,< 100 nM
"Cn1ncc2c(N)nc3ccc(C(=O)N(Cc4ccc(C(F)(F)F)cn4)N4CC5(COC5)OC4=O)cc3c21 [Example 191, 4-amino-1-methyl-N-(6-oxo-2,5-dioxa-7-azaspiro[3.4]octan-7-yl)-N-[[5-(trifluoromethyl)-2-pyridyl]methyl]pyrazolo[4,3-c]quinoline-8-carboxamide]",> 5 nM,103,100 to 1000 nM
